According to US11161864B2, “Sting agonists” (Venenum Biodesign, LLC, priority 2018, dated 2021):

Columns and labels:
[1] = biological target: wild-type (WT) truncated human STING protein, amino acids 155-379 (Homo sapiens (Human), UniProt Q86WV6, H232R); experiment: Human WT STING [3H] 2′,3′-cGAMP scintillation proximity competition binding assay; details: read-out: Human WT Binding IC50
Text: (§1) A human STING [^3H] 2′,3′-cGAMP scintillation proximity competition binding assay was utilized to detect binding of compounds to STING protein. […] The protein encoding plasmid contained a HIS tag, followed by an Avi tag and then a SUMO tag, which were followed by the STING coding sequence within the pET-28a (+) vector. The plasmid was transfected into a BL21 (DE3)/BirA E. coli co-expression strain. Protein was purified from the bacterial lysate using a cobalt-affinity column. The purified protein was dialyzed against PBS and then 20% glycerol was added prior to storage at −80° C.
(§2) 2′,3′-cGAMP in assay buffer (50 mM Tris pH 7.5, 100 mM NaCl, 0.1% Fatty Acid Free BSA). Test compounds (2.5 μL) were added to the plate first followed by a 25 μL mixture of STING protein, streptavidin PVT SPA beads (Perkin Elmer) and 10 μL [^3H] 2′,3′-cGAMP. Plates were incubated at room temperature for 18 hrs and read on a Wallac MicroBeta TriLux (Perkin Elmer).

[2] = biological target: AQ variant of truncated human STING protein, amino acids 155-379 (Homo sapiens (Human), UniProt Q86WV6, G230A/H232R/R293Q); experiment: Human AQ STING [3H] 2′,3′-cGAMP scintillation proximity competition binding assay; details: read-out: Human AQ Binding IC50
AQ variant of truncated human STING protein, amino acids 155-379, sequence (Q86WV6 155-379 G230A/H232R/R293Q): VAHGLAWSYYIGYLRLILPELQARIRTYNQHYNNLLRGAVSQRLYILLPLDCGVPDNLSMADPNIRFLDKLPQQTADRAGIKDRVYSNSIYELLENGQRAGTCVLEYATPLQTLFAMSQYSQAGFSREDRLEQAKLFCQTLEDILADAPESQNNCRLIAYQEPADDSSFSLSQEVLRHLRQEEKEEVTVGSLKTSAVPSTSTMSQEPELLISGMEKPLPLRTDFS
Text: as §1, §2

[3] = biological target: human STING (WT) (Homo sapiens (Human), UniProt Q86WV6, H232R); experiment: Thermal shift binding assay, human STING (WT); details: 100 μM compound, 5 μM STING protein; read-out: Human STING(WT) Tm Shift
human STING (WT), sequence (Q86WV6 155-379 H232R): as the sequence (Q86WV6 155-379 G230A/H232R/R293Q) above, with A76G, Q139R counted along it

[4] = biological target: human STING (G230A-R293Q) (Homo sapiens (Human), UniProt Q86WV6, G230A/H232R/R293Q); experiment: Thermal shift binding assay, human STING (AQ); details: 100 μM compound, 5 μM STING protein; read-out: Human STING(AQ) Tm Shift
human STING (G230A-R293Q), sequence (Q86WV6 155-379 G230A/H232R/R293Q): as the sequence (Q86WV6 155-379 G230A/H232R/R293Q) above

[5] = biological target: human STING (R232H) (Homo sapiens, UniProt Q86WV6); experiment: Thermal shift binding assay, human STING (R232H); details: 100 μM compound, 5 μM STING protein; read-out: Human STING(R232H) Tm Shift
[6] = biological target: mouse STING (Mus musculus (Mouse), UniProt Q3TBT3); experiment: Thermal shift binding assay, mouse STING; details: 100 μM compound, 5 μM STING protein; read-out: Mouse STING Tm Shift
mouse STING, sequence (Q3TBT3 154-378): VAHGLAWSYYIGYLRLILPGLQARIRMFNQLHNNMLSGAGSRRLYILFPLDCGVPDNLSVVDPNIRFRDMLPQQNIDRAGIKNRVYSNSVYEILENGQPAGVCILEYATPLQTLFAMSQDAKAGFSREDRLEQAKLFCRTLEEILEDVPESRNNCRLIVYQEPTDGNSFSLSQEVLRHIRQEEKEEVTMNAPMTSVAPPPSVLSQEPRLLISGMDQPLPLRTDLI

[7] = test system: STING pathway, THP1 cells; experiment: Human IFN-α/β induction assay (THP1 supernatants on HEK-Blue IFN-α/β reporter cells); type: cell-based; details: THP1 cells 5 hrs, HEK-Blue reporter cells 24 hrs
Experimental: Genetically engineered human type-1 Interferons (IFN-α/β) sensor cells-HEK Blue™ IFNα/β cells (Invivogen) were employed to measure the type-1 IFNs produced by THP1 cells that are treated with activators of STING. The human embryonic (HEK) Blue™ cells are specially designed to monitor the activation of JAK/STAT pathway induced by type 1 IFNs. Briefly, THP1 cells are treated with compounds for 5 hrs. In the second step, supernatants of THP1 cells are transferred to HEK Blue™ IFNα/β reporter cells and incubated for 24 hrs. The secreted embryonic alkaline phosphatase (SEAP) activity in the supernatants of HEK blue IFNα/3 reporter cells is measured and used to determine the quantities of IFNs.
HEK-Blue IFN-α/β reporter cells (Invivogen) were used to measure the secretion of IFN-α/β into culture supernatants of THP1 cells following STING pathway activation. In the first step, THP1 cells were cultured in presence of STING activators for 5 hrs at 37° C., in a 5% CO2 tissue culture incubator, which facilitates the release of IFN-α/β into the supernatants. In the second step, cell supernatants from THP1 cells were transferred to HEK-Blue IFN-α/β reporter cells and incubated at 37° C., in a 5% CO2 incubator for 24 hrs. HEK-Blue IFN-α/β reporter cells are specifically designed to monitor the activation of JAK-STAT pathway activation by type 1 IFNs. These cells express a secreted embryonic alkaline phosphatase (SEAP) reporter gene under the control of ISG54 promoter, which is a well-known interferon stimulatory gene activated by type 1 IFNs. Upon IFN-α/β stimulation, HEK-Blue IFN-α/β reporter cells activate the JAK-STAT pathway and subsequently the expression of the reporter gene. SEAP which is secreted in the supernatant is easily detectable using alkaline phosphatase detection medium (Quanti-Blue reagent from Invivogen).
These assays were run by adding 2 μL of compound stock solution to tissue culture treated 384-well plates with electronic pipettes. Compounds were diluted in autoclaved sterile water, initially spotted on the intermediate dilution plate and then to the assay plate. […]

[8] = test system: STING signaling, RAW-Dual reporter cells; experiment: Measurement of mouse IFN-β (ELISA); type: cell-based; details: Mus musculus, […]
Text: Mouse Interferon-β (IFN-β) in the supernatants of murine macrophages treated with STING activators was quantified using sandwich enzyme linked immunosorbent assay (ELISA). Briefly, IFN-β binds to plates coated with antibody and detection is accomplished using a detection antibody followed by streptavidin conjugated to horseradish peroxidase. Tetramethyl-benzidine is used as the substrate in this kit (PBL Assay Science). […] In this invention, mouse IFN-β ELISA is used to determine the potency of compound on STING pathway activation in mouse macrophages.
Murine macrophage derived cell line RAW-Dual reporter cells (Invivogen) were used to measure the IFN-β produced by STING signaling activation. Briefly, 20,000 cells in 27 μL were seeded into tissue culture treated 384-well plate that contained 3 μL of test compound. Cells were incubated at 37° C., in a 5% CO2 incubator for 5.5 hours. Supernatants from treated cells were diluted 20-fold and prior to measurement of IFN-β levels using ELISA kit (PBL Assay Science). 100 μL of diluted sample was added to ELISA plate. Plates were incubated at RT for 1 hour with shaking at 650 rpm. Post incubation, samples were aspirated from wells and the wells were washed 4 times. Diluted antibody (50 μL) was added to plates and incubated at RT for 30 minutes with shaking, followed by aspiration of antibody and 4× washes. Diluted HRP (horseradish peroxidase) solution (50 μL) was added and incubated for 10 minutes, followed by aspiration of the solution and 4× wash steps. After the final wash steps, plates were incubated with 100 μL of TMB (tetramethyl benzidine) substrate for 10 minutes, followed by addition of 100 μL of stop solution and plates were read on Envision plate reader for optical density.

[9] = test system: STING pathway genes, THP1 Dual (HAQ) human cells; experiment: qRT-PCR assay, THP1 Dual (HAQ) human cells; type: cell-based
[10] = test system: MC-38 tumor; experiment: MC-38 tumor bearing mice treated with Example 1C and anti-PD-1, anti-PD-L1, anti-CTLA4; type: in vivo, C57BL/6J mice; details: for #Tumor Free Mice after Treatment: 10 animals/group
Text: The animals were terminated when the tumor size reached 2,000 mm^3.

[11] = test system: MC-38 tumor; experiment: Treatment of MC-38 tumors with Example 1C and radiotherapy; type: in vivo, C57BL/6J mice; details: for #Tumor Free Mice after Treatment: 10 animals/group
Text: Tumors grew for 7 days to an average size of 100 mm^3. […] On Days −2, −1 and 0 received 5 Gy of radiation targeted to the tumor using the Small Animal Radiation Research Platform (SARRP) manufactured by Xstrahl Inc. Radiotherapy treatments were given according to the outline in Table 18. […] Radiotherapy treatments were given according to the outline in Table 19.

[12] = test system: MC-38 tumor; experiment: MC-38 tumor bearing mice treated with Example 1C and anti-PD-1
[13] = test system: CT-26 tumor; experiment: CT-26 tumor bearing mice, intra-tumoral treatment and re-challenge; details: for Number of surviving mice: 50 μg intra-tumoral Days 0, 3, 7; for Number of surviving mice in the re-challenge: mice with complete regression after 50 μg, re-challenged with CT-26, no further treatment
[14] = CTLA4 + PD-L1 (5 + 5 mg/kg) + 5 μg Example 1C
[15] = Iso Ab (10 mg/kg) + 5 μg Example 1C
[16] = PD1 + PD-L1 (5 + 5 mg/kg) + 5 μg Example 1C
[17] = Example 1C 5 μg IT Day 0, 3, 7, 14, no RT
[18] = RT (5 Gy) Day −1, 0 / Example 1C 5 μg IT Day 0, 3, 7, 14
[19] = RT (5 Gy) Day −2, −1, 0 / Example 1C 5 μg IT Day 0, 3, 7, 14

wild-type (WT) truncated human STING protein, amino acids 155-379, sequence (Q86WV6 155-379 H232R): as the sequence (Q86WV6 155-379 G230A/H232R/R293Q) above, with A76G, Q139R counted along it

## Nc1nc2c(ncn2[C@@H]2O[C@@H]3COP(=O)(S)OCCn4c(nc5cncnc54)COP(=O)(S)O[C@@H]2[C@@H]3F)c(=O)[nH]1 (single isomer, unassigned) [Example 1C]
[1]
  IC50: < 1 µM
[2]
  IC50: < 1 µM
[3]
  ΔTm at 100 µM: 10.1 to 20 °C
[4]
  ΔTm at 100 µM: > 20 °C
[5]
  ΔTm at 100 µM: 5 to 10 °C
[6]
  ΔTm at 100 µM: > 20 °C
[7]
  EC50: < 5 µM
[8]
  EC50: < 5 µM
[9]
  increase in CXCL10: 1000 fold
  increase in IL-6 compared to Control: 300 fold
  increase of IFN-β mRNA compared to ADU-S100: 30 fold
  increase of IFN-β mRNA compared to Control: 4000 fold
[10]; [14]
  #Tumor Free Mice after Re-challenge: 6/6
  #Tumor Free Mice after Treatment: 6/6
[10]; [15]
  #Tumor Free Mice after Re-challenge: 1
  #Tumor Free Mice after Treatment: 2
[10]; [16]
  #Tumor Free Mice after Re-challenge: 5
  #Tumor Free Mice after Treatment: 8
[11]; [17]
  #Tumor Free Mice after Re-challenge: 0/0
  #Tumor Free Mice after Treatment: 0/0
[11]; [18]
  #Tumor Free Mice after Re-challenge: 3
  #Tumor Free Mice after Treatment: 4
[11]; [19]
  #Tumor Free Mice after Re-challenge: 7
  #Tumor Free Mice after Treatment: 8
[12]; 5 μg Example 1C + 10 mg/kg Anti-PD-1, Day 0
  Number of surviving mice: 10/10
[12]; 5 μg Example 1C + 10 mg/kg Anti-PD-1, Day 3
  Number of surviving mice: 10/10
[12]; 5 μg Example 1C + 10 mg/kg Anti-PD-1, Day 6
  Number of surviving mice: 10/10
[12]; 5 μg Example 1C + 10 mg/kg Anti-PD-1, Day 10
  Number of surviving mice: 10/10
[12]; 5 μg Example 1C + 10 mg/kg Anti-PD-1, Day 14
  Number of surviving mice: 10/10
[12]; 5 μg Example 1C + 10 mg/kg Anti-PD-1, Day 17
  Number of surviving mice: 10/10
[12]; 5 μg Example 1C + 10 mg/kg Anti-PD-1, Day 21
  Number of surviving mice: 10/10
[12]; 5 μg Example 1C + 10 mg/kg Anti-PD-1, Day 24
  Number of surviving mice: 10/10
[12]; 5 μg Example 1C + 10 mg/kg Anti-PD-1, Day 27
  Number of surviving mice: 9/10
[12]; 5 μg Example 1C + 10 mg/kg Anti-PD-1, Day 30
  Number of surviving mice: 8/10
[12]; 5 μg Example 1C + 10 mg/kg Anti-PD-1, Day 34
  Number of surviving mice: 7/10
[12]; 5 μg Example 1C intra-tumoral Days 0, 3, 7, Day 0
  Number of surviving mice: 10/10
[12]; 5 μg Example 1C intra-tumoral Days 0, 3, 7, Day 3
  Number of surviving mice: 10/10
[12]; 5 μg Example 1C intra-tumoral Days 0, 3, 7, Day 6
  Number of surviving mice: 10/10
[12]; 5 μg Example 1C intra-tumoral Days 0, 3, 7, Day 10
  Number of surviving mice: 10/10
[12]; 5 μg Example 1C intra-tumoral Days 0, 3, 7, Day 14
  Number of surviving mice: 10/10
[12]; 5 μg Example 1C intra-tumoral Days 0, 3, 7, Day 17
  Number of surviving mice: 10/10
[12]; 5 μg Example 1C intra-tumoral Days 0, 3, 7, Day 21
  Number of surviving mice: 10/10
[12]; 5 μg Example 1C intra-tumoral Days 0, 3, 7, Day 24
  Number of surviving mice: 10/10
[12]; 5 μg Example 1C intra-tumoral Days 0, 3, 7, Day 27
  Number of surviving mice: 7/10
[12]; 5 μg Example 1C intra-tumoral Days 0, 3, 7, Day 30
  Number of surviving mice: 3/10
[12]; 5 μg Example 1C intra-tumoral Days 0, 3, 7, Day 34
  Number of surviving mice: 1/10
[13]; Day 0
  Number of surviving mice: 10/10
[13]; Day 3
  Number of surviving mice: 10/10
[13]; Day 7
  Number of surviving mice: 10/10
[13]; Day 10
  Number of surviving mice: 10/10
[13]; Day 14
  Number of surviving mice: 10/10
[13]; Day 17
  Number of surviving mice: 10/10
[13]; Day 20
  Number of surviving mice: 10/10
[13]; Day 23
  Number of surviving mice: 10/10
[13]; Day 35
  Number of surviving mice: 8/10
[13]; Rechallenge Day 0
  Number of surviving mice in the re-challenge: 8/8
[13]; Rechallenge Day 7
  Number of surviving mice in the re-challenge: 8/8
[13]; Rechallenge Day 11
  Number of surviving mice in the re-challenge: 8/8
[13]; Rechallenge Day 14
  Number of surviving mice in the re-challenge: 8/8
[13]; Rechallenge Day 17
  Number of surviving mice in the re-challenge: 8/8
[13]; Rechallenge Day 20
  Number of surviving mice in the re-challenge: 8/8
[13]; Rechallenge Day 24
  Number of surviving mice in the re-challenge: 8/8
[13]; Rechallenge Day 27
  Number of surviving mice in the re-challenge: 8/8
[13]; Rechallenge Day 30
  Number of surviving mice in the re-challenge: 8/8
[13]; Rechallenge Day 33
  Number of surviving mice in the re-challenge: 8/8
